Results from patent US10654834B2 (Venenum Biodesign, LLC, priority 2016, dated 2020).

Tests used:
human TGR5 receptor = molecular target: T1, human TGR5 receptor (Homo sapiens, UniProt Q8TDU6); experiment: Human TGR5 cAMP production assay (hTGR5-CHO cells, DiscoveRx cAMP XS+ kit); assay type: cell-based; conditions: luminescent cAMP assay, read-out: Human TGR5 Lum. cAMP Activity (EC50)
T1 construct: host or cells: CHO-K1 (hTGR5-CHO)
T1 sequence (Q8TDU6 1-330): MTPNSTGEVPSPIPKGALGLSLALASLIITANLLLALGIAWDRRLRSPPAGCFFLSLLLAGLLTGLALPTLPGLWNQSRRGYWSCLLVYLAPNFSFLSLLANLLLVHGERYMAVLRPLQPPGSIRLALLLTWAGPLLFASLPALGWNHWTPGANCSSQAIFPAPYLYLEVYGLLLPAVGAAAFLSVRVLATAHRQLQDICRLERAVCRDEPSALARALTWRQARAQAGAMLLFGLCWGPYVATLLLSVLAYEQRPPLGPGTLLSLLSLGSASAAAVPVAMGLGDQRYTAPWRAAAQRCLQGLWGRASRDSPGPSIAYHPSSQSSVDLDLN
Description: Human TGR5 cAMP Production Assay
Compounds of the present invention were evaluated for their ability to induce cAMP production using CHO-K1 cells overexpressing the human TGR5 receptor.
CHO-K1 cells stably expressing human TGR5 receptor (accession number NM_001077194.1) (hTGR5) (i.e., hTGR5-CHO cells) were purchased from DiscoveRx Corporation (Fremont, Calif.). hTGR5-CHO cells were grown in Ham's F-12 media supplemented with 10% Fetal Bovine Serum, 1% Penicillin-Streptomycin, 2 mM L-Alanine L-Glutamine (Glutamax), and 800 μg/mL Geneticin selection. The cAMP production assay was performed using DiscoveRx's cAMP XS+ kit (Catalog No. 90-0075XL) following the manufacturer's recommended protocol. Briefly, hTGR5-CHO cells were harvested using non-enzymatic cell dissociation buffer (Sigma-Aldrich, St. Louis, Mo.) and 1×10^6 cells were combined in Phosphate-Buffered Saline (PBS) to a final volume of 496 μL to which 4 μL of 125 mM IBMX (Sigma-Aldrich, St. Louis, Mo.) was added. 500 μL of cAMP antibody solution was added to the harvested cells and incubated at room temperature for 20 min.
Test compounds were serially diluted (half-log dilutions) in DMSO and then further diluted 1:50 in PBS, 10 mM HEPES buffer. 2 μL of serially diluted compound was added to a 384-well low volume plate (Greiner; cat #784075) and centrifuged briefly. 2 μl of the cell/cAMP antibody mixture was then added to each compound-containing well and allowed to incubate at room temperature for one hour. Following incubation, the XS+ kits' ED/Lysis/CL Substrate Working Solution was prepared following the manufacturer's recommended protocol and 4 μL was added to each well of the plate. The plate was then incubated for one hour at room temperature. Following incubation, 4 μL of Enzyme Acceptor reagent was added to the plate and allowed to incubate overnight at room temperature. Luminescent signal was then detected using the Viewlux instrument (Perkin-Elmer, Waltham, Mass.).
Human and Mouse TGR5 cAMP
(§1) In Table 52, EC50 values for both human and mouse cells were determined according to the TGR5 cAMP assays described above. […]

mouse TGR5 receptor = molecular target: T2, mouse TGR5 receptor (Mus musculus, UniProt Q80SS6); experiment: Mouse TGR5 HTRF cAMP production assay (HEK293-EBNA cells, Cisbio cAMP HiRange kit); assay type: cell-based; conditions: HEK293-EBNA cells overexpressing mouse TGR5, HTRF cAMP assay
T2 construct: host or cells: HEK293-EBNA (293 c18, ATCC CRL10852)
T2 sequence (Q80SS6 1-329): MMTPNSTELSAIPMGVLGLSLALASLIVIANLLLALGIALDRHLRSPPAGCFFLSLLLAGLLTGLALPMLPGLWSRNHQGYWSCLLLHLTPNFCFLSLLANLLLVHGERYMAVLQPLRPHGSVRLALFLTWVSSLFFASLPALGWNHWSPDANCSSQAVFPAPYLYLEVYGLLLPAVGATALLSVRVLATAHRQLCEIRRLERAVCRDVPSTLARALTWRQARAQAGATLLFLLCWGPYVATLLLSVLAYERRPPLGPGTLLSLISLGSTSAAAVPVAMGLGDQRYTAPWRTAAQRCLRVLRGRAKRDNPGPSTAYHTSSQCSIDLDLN
Description: Mouse TGR5 cAMP Production Assay
Compounds of the present invention were evaluated for their ability to induce cAMP production in HEK-EBNA cells overexpressing the mouse TGR5 receptor. Human embryonic kidney cells (HEK293-EBNA) stably expressing mouse TGR5 receptor were established using the following procedure. Specifically, a commercially obtained gene encoding mouse TGR5 (accession number BC116914) from Thermo Scientific (Waltham, Mass.) was cloned into an episomal expression vector. The resulting expression plasmid was then transfected into 293 c18 (ATCC® CRL10852™) cells, which express the Epstein-Barr virus nuclear antigen EBNA1 and can support the replication of episomal vectors. Selection for the plasmid was maintained with Hygromycin B. Cells were cultured and maintained in DMEM (Sigma; cat #6429) supplemented with 10% Fetal Bovine Serum, 1% penicillin/streptomycin, 2 mM L-alanine L-glutamine (GlutaMax), and 250 μg/mL Hygromycin.
We developed two cAMP production assays.
(ii) HTRF cAMP Production Assay
In this second cAMP production assay, the cAMP production was measured in 384-well low volume plates (Greiner; cat #784075) using the Cisbio™ cAMP HiRange HTRF Assay Kit (CisBio) according to the manufacturer's protocol.
Briefly, compounds were initially diluted in 100% DMSO (12-point serial dilution by half logs) in a 96-well plate and then were further diluted 1:50 in PBS containing 10 mM HEPES. 5 μL were transferred to the 384-well assay plate in duplicate. HEK293-EBNA cells stably overexpressing mouse TGR5 were harvested using non-enzymatic cell dissociation buffer (Sigma), spun down, then resuspended in serum-free DMEM with 500 μM IBMX at a density of 500,000 cells/mL. 5 μL of cell suspension was transferred to each well of the 384-well assay plate already containing compound. The plate was covered and incubated at room temperature for 1 hour. The d2-cAMP and anti-cAMP Ab-cryptate stock solutions were prepared as per kit instructions. Then 5 μL of each conjugate (d2 and cryptate) were added to each well of the assay plate. The plate was covered and incubated at room temperature for one (1) hour. The plate was read on an Envision™ plate reader (PerkinElmer).
as §1

| Compound | EC50 (human TGR5 receptor) [nM] | EC50 (mouse TGR5 receptor) [nM] |
| --- | --- | --- |
| O=C(O)CCNC(=O)NCCC1CCN(c2cc(N3C[C@@H](O)C[C@H]3C(=O)NCCc3ccc(C(F)(F)F)cc3)nc(C(F)(F)F)n2)CC1 [Compound 374, 3-(3-(2-(1-(6-((2S,4S)-4-hydroxy-2-((4-(trifluoromethyl)phenethyl)carbamoyl)pyrrolidin-1-yl)-2-(trifluoromethyl)pyrimidin-4-yl)piperidin-4-yl)ethyl)ureido)propanoic acid] | < 100 | < 100 |
| N#Cc1ccc(CCNC(=O)[C@@H]2CCCN2c2cc(N3CCC(CC(=O)O)CC3)nc(C(F)(F)F)n2)cc1 [Compound 27] | 100 to 999 | < 100 |
| Cc1nc(N2CCC(CO)CC2)cc(N2CCC[C@H]2C(=O)NCCc2ccc(C#N)cc2)n1 [Compound 36] | 100 to 999 | 1000 to 30000 |
| CN(C)CCN1CCN(c2cc(N3CCC[C@H]3C(=O)NCCc3ccc(C#N)cc3)nc(C(F)(F)F)n2)CC1 [Compound 30] | 100 to 999 | 100 to 999 |
| CN(C)CC(=O)N1CCN(c2cc(N3CCC[C@@H](C(=O)NCCc4ccc(C(F)(F)F)cc4)C3)nc(C(F)(F)F)n2)CC1 [Compound 338, (R)-1-(6-(4-(2-(dimethylamino)-acetyl)piperazin-1-yl)-2-(trifluoromethyl)-pyrimidin-4-yl)-N-(4-(trifluoromethyl)phenethyl)-piperidine-3-carboxamide] | 100 to 999 | 100 to 999 |
| COCCC1CCN(c2cc(N3CC[C@H]3C(=O)NCCc3ccc(C#N)cc3)nc(C(F)(F)F)n2)CC1 [Compound 225, (S)-N-(4-cyanophenethyl)-1-(6-(4-(2-methoxyethyl)piperidin-1-yl)-2-(trifluoromethyl)pyrimidin-4-yl)azetidine-2-carboxamide] | < 100 | < 100 |
| COc1cc(C(F)(F)F)ccc1CCNC(=O)[C@@H]1CCCN(c2cc(N3CCC(CO)CC3)nc(C(F)(F)F)n2)C1 [Compound 331] | < 100 | 100 to 999 |
| N=C(N)N1CCC(CCCC2CCN(c3cc(N4CC[C@H]4C(=O)NCCc4ccc(C(F)(F)F)cc4)nc(C(F)(F)F)n3)CC2)CC1 [Compound 288, (S)-1-(6-(4-(3-(1-carbamimidoylpiperidin-4-yl)propyl)piperidin-1-yl)-2-(trifluoromethyl)pyrimidin-4-yl)-N-(4-(trifluoromethyl)phenethyl)-azetidine-2-carboxamide] | 100 to 999 | < 100 |
| N#Cc1ccc(CCNC(=O)[C@@H]2CCN2c2cc(N3CCC(CCCC(=O)NCCOCCNS(=O)(=O)c4ccc(C(=O)O)cc4)CC3)nc(C(F)(F)F)n2)cc1 [Compound 291, (S)-4-(N-(2-(2-(4-(1-(6-(2-((4-cyanophenethyl)carbamoyl)azetidin-1-yl)-2-(trifluoromethyl)pyrimidin-4-yl)piperidin-4-yl)butanamido)ethoxy)ethyl)sulfamoyl)-benzoic acid] | 100 to 999 | < 100 |
| N#Cc1ccc(CCNC(=O)[C@@H]2CCCN2c2cc(-c3ccc(CCC(=O)N[C@@H](CCCNC(=N)N)C(=O)O)cc3)cc(C(F)(F)F)n2)cc1 [Compound 207, (S)-2-(3-(4-(2-((S)-2-((4-cyanophenethyl)carbamoyl)pyrrolidin-1-yl)-6-(trifluoromethyl)pyridin-4-yl)phenyl)propanamido)-5-guanidino-pentanoic acid] | 100 to 999 | < 100 |
| N[C@@H](CCC(=O)NCCCC1CCN(c2cc(N3CCC[C@H]3C(=O)NCCc3ccc(C(F)(F)F)cc3)nc(C(F)(F)F)n2)CC1)C(=O)O [Compound 77, (S)-2-amino-5-oxo-5-((3-(1-(2-(trifluoromethyl)-6-((S)-2-((4-(trifluoromethyl)phenethyl)carbamoyl)pyrrolidin-1-yl)pyrimidin-4-yl)piperidin-4-yl)propyl)amino)pentanoic acid] | < 100 | < 100 |

Continued, values first:

| EC50 (human TGR5 receptor) [nM] | EC50 (mouse TGR5 receptor) [nM] | Compound |
| --- | --- | --- |
| < 100 | < 100 | N#Cc1ccccc1CCNC(=O)[C@@H]1CCCN1c1cc(N2CCC(CCCC(=O)NCS(=O)(=O)O)CC2)nc(C(F)(F)F)n1 [Compound 366, (S)-(4-(1-(6-(2-((2-cyanophenethyl)carbamoyl)pyrrolidin-1-yl)-2-(trifluoromethyl)pyrimidin-4-yl)piperidin-4-yl)butanamido)methanesulfonic acid] |
| 1000 to 30000 | 100 to 999 | O=C(O)CCCC1CCN(c2cc(N3CCC[C@H]3C(=O)NCCc3ccc(Cl)cc3Cl)ncn2)CC1 [Compound 35] |
| 100 to 999 | < 100 | O=C(NCCc1ccc(C(F)(F)F)cc1)[C@@H]1CCCN(c2cc(N3CCN(C(=O)CO)CC3)nc(C(F)(F)F)n2)C1 [Compound 348, (R)-1-(6-(4-(2-hydroxyacetyl)piperazin-1-yl)-2-(trifluoromethyl)pyrimidin-4-yl)-N-(4-(trifluoromethyl)phenethyl)piperidine-3-carboxamide] |
| 1000 to 30000 | 100 to 999 | COC(=O)C(=O)N1CCN(c2cc(N3CCC[C@@H](C(=O)NCCc4ccc(C(F)(F)F)cc4)C3)nc(C(F)(F)F)n2)CC1 [Compound 339, (R)-methyl 2-oxo-2-(4-(2-(trifluoromethyl)-6-(3-((4-(trifluoromethyl)phenethyl)-carbamoyl)piperidin-1-yl)pyrimidin-4-yl)piperazin-1-yl)acetate] |
| 100 to 999 | < 100 | CCOC(=O)CCNC(=O)N1CCN(c2cc(N3CCC[C@@H](C(=O)NCCc4ccc(C(F)(F)F)cc4)C3)nc(C(F)(F)F)n2)CC1 [Compound 343, (R)-ethyl 3-(4-(2-(trifluoromethyl)-6-(3-((4-(trifluoromethyl)phenethyl)carbamoyl)-piperidin-1-yl)pyrimidin-4-yl)piperazine-1-carboxamido)propanoate] |
| 100 to 999 | < 100 | N#Cc1ccc(CCNC(=O)[C@@H]2CCCN2c2cc(-c3ccc(CO)s3)nc(C(F)(F)F)n2)cc1 [Compound 183, (S)-N-(4-cyanophenethyl)-1-(6-(5-(hydroxymethyl)thiophen-2-yl)-2-(trifluoromethyl)pyrimidin-4-yl)pyrrolidine-2-carboxamide] |
